Earlier results in paper PMC8146789, “20-Hydroxyecdysone, from Plant Extracts to Clinical Use: Therapeutic Potential for the Treatment of Neuromuscular, Cardio-Metabolic and Respiratory Diseases” (Biomedicines, 2021).
Where two headings read alike, the source gives them in different places.

Design: method as in Wu et al. [124]
Settings: mice, ref Wu et al. [124], cited from earlier work
Wherever quantitative distribution, Adrenals is given: test concentration or dose not given here.
Wherever quantitative distribution, Bile is given: test concentration or dose not given here.
Wherever quantitative distribution, Bladder is given: test concentration or dose not given here.
Wherever quantitative distribution, Blood plasma is given: test concentration or dose not given here.
Wherever quantitative distribution, Brain is given: test concentration or dose not given here.
Wherever quantitative distribution, Feces is given: test concentration or dose not given here.
Wherever quantitative distribution, Large intestine is given: test concentration or dose not given here.
Wherever quantitative distribution, Liver is given: test concentration or dose not given here.
Wherever quantitative distribution, Lungs is given: test concentration or dose not given here.
Wherever quantitative distribution, Skeletal muscle is given: test concentration or dose not given here.
Wherever quantitative distribution, Small intestine is given: test concentration or dose not given here.
Wherever quantitative distribution, Spinal cord is given: test concentration or dose not given here.
Wherever quantitative distribution, Spleen is given: test concentration or dose not given here.
Wherever quantitative distribution, Stomach is given: test concentration or dose not given here.
Wherever quantitative distribution, Testis is given: test concentration or dose not given here.
Wherever quantitative distribution, Urine is given: test concentration or dose not given here.

## CC(C)(O)CC[C@@H](O)[C@](C)(O)[C@H]1CC[C@@]2(O)C3=CC(=O)[C@@H]4C[C@@H](O)[C@@H](O)C[C@]4(C)[C@H]3CC[C@]12C [20E, 2β,3β,14α,20R,22R,25-hexahydroxy-5β-cholest-7-en-6-one]
5 min
  quantitative distribution, Adrenals: 0.184 µg/g
  quantitative distribution, Bile: 0.421 µg/g
  quantitative distribution, Bladder: 0.013 µg/g
  quantitative distribution, Blood plasma: 0.061 µg/g
  quantitative distribution, Brain: 0.013 µg/g
  quantitative distribution, Feces: 0.015 µg/g
  quantitative distribution, Heart: 0.062 µg/g
  quantitative distribution, Kidney: 0.137 µg/g
  quantitative distribution, Large intestine: 0.011 µg/g
  quantitative distribution, Liver: 0.312 µg/g
  quantitative distribution, Lungs: 0.116 µg/g
  quantitative distribution, Skeletal muscle: 0.021 µg/g
  quantitative distribution, Small intestine: 0.254 µg/g
  quantitative distribution, Spinal cord: 0.019 µg/g
  quantitative distribution, Spleen: 0.041 µg/g
  quantitative distribution, Stomach: 0.034 µg/g
  quantitative distribution, Testis: 0.048 µg/g
  quantitative distribution, Urine: 0.482 µg/g
10 min
  quantitative distribution, Adrenals: 0.139 µg/g
  quantitative distribution, Bile: 0.456 µg/g
  quantitative distribution, Bladder: 0.024 µg/g
  quantitative distribution, Blood plasma: 0.057 µg/g
  quantitative distribution, Brain: 0.014 µg/g
  quantitative distribution, Feces: 0.019 µg/g
  quantitative distribution, Heart: 0.052 µg/g
  quantitative distribution, Kidney: 0.123 µg/g
  quantitative distribution, Large intestine: 0.023 µg/g
  quantitative distribution, Liver: 0.251 µg/g
  quantitative distribution, Lungs: 0.069 µg/g
  quantitative distribution, Skeletal muscle: 0.023 µg/g
  quantitative distribution, Small intestine: 0.139 µg/g
  quantitative distribution, Spinal cord: 0.028 µg/g
  quantitative distribution, Spleen: 0.026 µg/g
  quantitative distribution, Stomach: 0.047 µg/g
  quantitative distribution, Testis: 0.036 µg/g
  quantitative distribution, Urine: 0.921 µg/g
30 min
  quantitative distribution, Adrenals: 0.098 µg/g
  quantitative distribution, Bile: 1.042 µg/g
  quantitative distribution, Bladder: 0.038 µg/g
  quantitative distribution, Blood plasma: 0.052 µg/g
  quantitative distribution, Brain: 0.015 µg/g
  quantitative distribution, Feces: 0.035 µg/g
  quantitative distribution, Heart: 0.035 µg/g
  quantitative distribution, Kidney: 0.098 µg/g
  quantitative distribution, Large intestine: 0.029 µg/g
  quantitative distribution, Liver: 0.213 µg/g
  quantitative distribution, Lungs: 0.057 µg/g
  quantitative distribution, Skeletal muscle: 0.028 µg/g
  quantitative distribution, Small intestine: 0.094 µg/g
  quantitative distribution, Spinal cord: 0.067 µg/g
  quantitative distribution, Spleen: 0.024 µg/g
  quantitative distribution, Stomach: 0.075 µg/g
  quantitative distribution, Testis: 0.029 µg/g
  quantitative distribution, Urine: 1.534 µg/g
1 h
  quantitative distribution, Adrenals: 0.081 µg/g
  quantitative distribution, Bile: 0.901 µg/g
  quantitative distribution, Bladder: 0.026 µg/g
  quantitative distribution, Blood plasma: 0.047 µg/g
  quantitative distribution, Brain: 0.013 µg/g
  quantitative distribution, Feces: 0.068 µg/g
  quantitative distribution, Heart: 0.033 µg/g
  quantitative distribution, Kidney: 0.071 µg/g
  quantitative distribution, Large intestine: 0.031 µg/g
  quantitative distribution, Liver: 0.112 µg/g
  quantitative distribution, Lungs: 0.053 µg/g
  quantitative distribution, Skeletal muscle: 0.017 µg/g
  quantitative distribution, Small intestine: 0.083 µg/g
  quantitative distribution, Spinal cord: 0.041 µg/g
  quantitative distribution, Spleen: 0.018 µg/g
  quantitative distribution, Stomach: 0.061 µg/g
  quantitative distribution, Testis: 0.026 µg/g
  quantitative distribution, Urine: 0.281 µg/g
3 h
  quantitative distribution, Adrenals: 0.073 µg/g
  quantitative distribution, Bile: 0.301 µg/g
  quantitative distribution, Bladder: 0.023 µg/g
  quantitative distribution, Blood plasma: 0.032 µg/g
  quantitative distribution, Brain: 0.012 µg/g
  quantitative distribution, Feces: 0.099 µg/g
  quantitative distribution, Heart: 0.031 µg/g
  quantitative distribution, Kidney: 0.055 µg/g
  quantitative distribution, Large intestine: 0.035 µg/g
  quantitative distribution, Liver: 0.078 µg/g
  quantitative distribution, Lungs: 0.049 µg/g
  quantitative distribution, Skeletal muscle: 0.015 µg/g
  quantitative distribution, Small intestine: 0.076 µg/g
  quantitative distribution, Spinal cord: 0.033 µg/g
  quantitative distribution, Spleen: 0.023 µg/g
  quantitative distribution, Stomach: 0.053 µg/g
  quantitative distribution, Testis: 0.023 µg/g
  quantitative distribution, Urine: 0.102 µg/g
6 h
  quantitative distribution, Adrenals: 0.065 µg/g
  quantitative distribution, Bile: 0.209 µg/g
  quantitative distribution, Bladder: 0.018 µg/g
  quantitative distribution, Blood plasma: 0.023 µg/g
  quantitative distribution, Brain: 0.01 µg/g
  quantitative distribution, Feces: 0.931 µg/g
  quantitative distribution, Heart: 0.029 µg/g
  quantitative distribution, Kidney: 0.043 µg/g
  quantitative distribution, Large intestine: 0.048 µg/g
  quantitative distribution, Liver: 0.061 µg/g
  quantitative distribution, Lungs: 0.045 µg/g
  quantitative distribution, Skeletal muscle: 0.013 µg/g
  quantitative distribution, Small intestine: 0.061 µg/g
  quantitative distribution, Spinal cord: 0.024 µg/g
  quantitative distribution, Spleen: 0.027 µg/g
  quantitative distribution, Stomach: 0.041 µg/g
  quantitative distribution, Testis: 0.021 µg/g
  quantitative distribution, Urine: 0.096 µg/g
12 h
  quantitative distribution, Adrenals: 0.052 µg/g
  quantitative distribution, Bile: 0.198 µg/g
  quantitative distribution, Bladder: 0.015 µg/g
  quantitative distribution, Blood plasma: 0.015 µg/g
  quantitative distribution, Brain: 0.008 µg/g
  quantitative distribution, Feces: 0.312 µg/g
  quantitative distribution, Heart: 0.023 µg/g
  quantitative distribution, Kidney: 0.037 µg/g
  quantitative distribution, Large intestine: 0.038 µg/g
  quantitative distribution, Liver: 0.056 µg/g
  quantitative distribution, Lungs: 0.036 µg/g
  quantitative distribution, Skeletal muscle: 0.011 µg/g
  quantitative distribution, Small intestine: 0.05 µg/g
  quantitative distribution, Spinal cord: 0.020 µg/g
  quantitative distribution, Spleen: 0.032 µg/g
  quantitative distribution, Stomach: 0.032 µg/g
  quantitative distribution, Testis: 0.019 µg/g
  quantitative distribution, Urine: 0.087 µg/g
24 h
  quantitative distribution, Adrenals: 0.043 µg/g
  quantitative distribution, Bile: 0.094 µg/g
  quantitative distribution, Bladder: 0.013 µg/g
  quantitative distribution, Blood plasma: 0.011 µg/g
  quantitative distribution, Brain: 0.007 µg/g
  quantitative distribution, Feces: 0.041 µg/g
  quantitative distribution, Heart: 0.022 µg/g
  quantitative distribution, Kidney: 0.032 µg/g
  quantitative distribution, Large intestine: 0.023 µg/g
  quantitative distribution, Liver: 0.046 µg/g
  quantitative distribution, Lungs: 0.028 µg/g
  quantitative distribution, Skeletal muscle: 0.010 µg/g
  quantitative distribution, Small intestine: 0.033 µg/g
  quantitative distribution, Spinal cord: 0.018 µg/g
  quantitative distribution, Spleen: 0.027 µg/g
  quantitative distribution, Stomach: 0.023 µg/g
  quantitative distribution, Testis: 0.017 µg/g
  quantitative distribution, Urine: 0.046 µg/g
